Experimental data published in patent publication US12582614B2, “Composition for preventing, alleviating or treating sarcopenia, containing D-ribo-2-hexulose as active ingredient” (KYUNGPOOK NATIONAL UNIVERSITY INDUSTRY-ACADEMIC COOPERATION …, priority 2021, dated 2026).

Assays:
Assay type in all cases: in vivo, C57BL/6J male mice
myostatin = test: IHC analysis of muscle tissue, myostatin; conditions: gastrocnemius muscle fibers, increase in NC vs YC
Method: (§1) For morphological tissue observation, parts of liver and muscle tissues were fixed with a 10% formaldehyde solution for 24 hours. Thereafter, the samples were subjected to replacement with the same solution twice, dehydrated twice with ethanol, embedded in paraffin, and treated with poly-L-lysine to prepare tissue slices having a thickness of 5 μm. For morphological analysis, among the prepared tissue sections, the liver tissue was stained with H&E and MT, and the muscle tissue was stained with H&E and Sirius red, and magnified 200 times under an optical microscope. For IHC analysis, the muscle tissue was stained with IGF-1 and Myostatin, and then observed under an optical microscope.

gastrocnemius tissue = test: H&E and Sirius red staining of gastrocnemius tissue
Method: as §1

aged mice = test: Left hind leg thickness (digital calipers); conditions: week 12, DRH group vs NC group
Method: The thicknesses of left hind legs were measured using Bluetec digital calipers (Korea, BLUETEC, BD500) every 4 weeks during the experiment period, and the leg thickness was divided by the body weight of each mouse in order to minimize differences between individuals (mm/100 g× body weight).

[1] = Lipid profiles of muscles and plasma
Method: Plasma TG and TC analysis was performed using an enzyme kit (Asan Pharmaceutical Co., Ltd., Korea). Free fatty acid (FFA) was also measured using an enzyme kit (Abcam., USA). Liver and muscle lipids were extracted, and the dried lipid residue was then dissolved in 1 mL of ethanol for the measurement of TG, TC, and FFA. For emulsification, Triton X-100 and a sodium cholate solution were added to 200 μL of the dissolved lipid solution. The TG, TC, and FFA were analyzed in the same kit as the enzyme kit used for plasma lipid analysis.

[2] = test system: MyoD, Myf5, Myf6, Myogenin, Mef2, MuRF1, Atrogin1, FoxO3; test: Real-time PCR of muscle strength-related genes
Method: After total RNA was isolated, total complementary DNA (cDNA) was synthesized. For real-time PCR analysis, template cDNA was diluted with RNAse-free water and used at a concentration of 25 ng/μL. Then, gene expression was analyzed using a QuantitTeck SYBR Green PCR kit (QIAGEN, Germany).
Each of the reaction solutions consisted of 10 μL of SYBR Green, 2 μL of a template, and 200 μM primers. RNAse-free water was added to a final volume of 20 μL, and reacted at 94° C. for 15 seconds, and then 58° C. and 72° C. for 30 seconds. The reaction solution was reacted 40 times at 65° C. for 30 seconds at 15 seconds per cycle. In this case, by monitoring the fluorescence signal for each cycle and analyzing the resulting threshold cycle (Ct), mRNA expression between the respective experimental groups was quantitatively analyzed using a CFX96 Real-time system (Bio-Rad, USA). GAPDH (Gene ID 14433) was used as an internal transcriptional marker, and the gene primers used for amplification were as follows: MyoD (myoblast determination protein 1, Gene ID 17927), Myf5 (Gene ID 17877), Myf6 (Gene ID 17878), Myogenin (Gene ID 17928), Mef2 (Gene ID 17260), MuRF1 (Gene ID […]), Atrogin1 (Gene ID 67731), FoxO3 (Gene ID 56484), CerS1 (Gene ID 93898(3)1), CIDEC1 (Gene ID 12700), SCD1 (Gene ID 20249), Adipsin (complement factor D, Gene ID 11537), Adiponectin (Gene ID 11450), Haptoglobin (Gene ID 15439), and Neuronatin (Gene ID 18111).

TNF-α = test: Western blotting of TNF-α expression; conditions: DRH group vs NC group
Method: The amount of cytoplasmic and membrane proteins was quantified according to the Bradford method. Thereafter, a protein load was applied onto a 10% SDS-polyacrylamide gel, transferred to a Tris-glycine electrophoresis buffer for an hour, and then electrophoresed. The positions of the bands were confirmed using a Ponceau solution, blocking (5% skim milk in TBS/0.1% Tween-20) was performed at room temperature for 60 minutes in order to reduce non-specific reactions to the membrane. Then, the samples were reacted with a primary antibody overnight at 4° C. […]

[3] = test system: insulin-like growth factor 1 (IGF-1); test: IHC analysis of muscle tissue, IGF-1; conditions: reduction in NC vs YC
Method: as §1

[4] = decrease in NC vs YC, DRH vs NC significant

O=C(CO)[C@H](O)[C@H](O)[C@H](O)CO [DRH, D-ribo-2-hexulose]
expression level of myostatin (myostatin): suppressed this increase to the level of the YC group | progression of fibrosis (Sirius red staining) (gastrocnemius tissue; DRH group): reduced to that of the YC group | size of muscle fibers (H&E staining) (gastrocnemius tissue; reduction observed in NC group): improved | thicknesses of the left hind legs (aged mice): significantly increased | muscle fatty acid level ([1]; DRH group vs NC group): no significant difference | muscle total cholesterol (TC) level ([1]; DRH group vs NC group): no significant difference | plasma fatty acids ([1]; DRH group vs NC group): significantly decreased | plasma TC level ([1]; increase in NC vs YC): improved | plasma TG level ([1]; increase in NC vs YC): improved | muscle triglyceride (TG) level ([1]; increase with aging): significantly reduced this increase | expression of Atrogin1 gene ([2]; all three groups (YC, NC, DRH)): no significant difference | expression of FoxO3 gene ([2]; all three groups (YC, NC, DRH)): no significant difference | expression of MuRF1 gene ([2]; all three groups (YC, NC, DRH)): no significant difference | expression of MyoD gene ([2]; all three groups (YC, NC, DRH)): no significant difference | expression of Myf5 gene [2, 4]: partially improved | expression of Myf6 gene [2, 4]: partially improved | expression of Myogenin gene [2, 4]: partially improved | TNF-α expression (TNF-α): significantly decreased | expression level of IGF-1 [3]: improved this reduction
